Laboratory results taken from US9616022B1, “Nanodiamond compositions and their use for drug delivery” (THE FLORIDA INTERNATIONAL UNIVERSITY BOARD OF TRUSTEES, priority 2016, dated 2017).

Key:
[1] = system: in-vitro BBB model (HBMVEC and astrocytes); assay: Drug delivery through in-vitro BBB model; format: in vitro ADME, human; details: 40 μg/mL in upper chamber, 30 min to Day 2
Experimental: Primary human brain microvascular endothelial cells (HBMVEC) and astrocytes were obtained from Sciencell Research Laboratories, Carlsbad, Calif. An in-vitro BBB model was established in trans-well plate as per published protocol.^47,48 HBMVECs were inoculated at the upper side of 0.4-μm pore size PTFE membrane tissue culture inserts (Corning, N.Y.) at initial concentration of 10^4 cells/well. A confluent layer of human astrocytes was grown on the lower side of the membrane. After incubation, integrity of the BBB was measured with transendothelial electrical resistance (TEER) using Millicell ERS microelectrodes (Millipore). […] Afterwards, cell media was collected at different time points (30 mins, 1 hr, Day 1, and Day 2) from the lower chamber and the upper chamber was replenished with fresh media. The drug content of the collected medium was measured through HPLC as mentioned above.

[2] = Solubility in water or PBS; format: physicochemical
Excerpt: In some embodiments, the efficacy of the ND-EFV formulation can be further optimized by making a suspension of the formulation in a liquid. Being hydrophobic molecules, both EFV and ND were insoluble in water or phosphate buffer saline (PBS). In certain embodiments, solvents with ratios of PBS to DMSO (dimethyl sulfoxide) ranging from 1:1 to 1:9 were used to make the ND-EFV formulation soluble in physiological buffer media. In an exemplary embodiment, a PBS:DMSO ratio of approximately 1:9 was used for making a ND-EFV suspension, which was subsequently diluted in preparation to perform biological experiments.

HIV-1 Ba-L = assay: Anti-HIV-1 efficacy, p24 ELISA in infected primary human macrophages; format: cell-based; details: 40 μg/mL, HIV-1 infected macrophages, supernatant Day 0-7
Experimental: ND-EFV was investigated for anti-HIV-1 efficacy in primary human macrophage. Human peripheral blood mononuclear cells (PBMCs) were isolated from a healthy subject and differentiated into macrophages as previously published.^45 PBMCs were isolated with Ficoll-Hypaque (Pharmacia) gradient and cells were incubated for differentiation for 7 days in the presence of human macrophage colony stimulating factor (MCSF, Sigma) to macrophages. Following incubation, macrophages were infected with HIV-1 1Ba-L (NIH AIDS research and reference reagent program Cat#510) (100 ng/mL) for 24 hrs. On the next day, cells were washed to get rid of any unattached virus and fresh media was added. At the same time, 40 μg/mL of ND-EFV and unformulated EFV was added to these cells in two different setups. The HIV-1 infected macrophages served as a positive control. The […] treated cells were monitored for up to 10 days along with the infected control cells. The cell supernatant was collected at Day 0, 1, 2, 3, 5, and 7 post-treatment. The viral p24 level in the supernatant was measured with p24 ELISA assay (Cat. #0801200, Zeptometrix, USA). The p24 level at different time points provided the level of viral inhibition caused by ND-EFV and EFV. The p24 level at the culture supernatant will be inversely proportional to therapeutic efficacy of ND-EFV.

Question: Which “EFV drug release on the CNS side (lower chamber) of the BBB model” value [1] does the source give for O=C1Nc2ccc(Cl)cc2[C@@](C#CC2CC2)(C(F)(F)F)O1 [EFV, Efavirenz] here?
Answer: very robust drug release

Question: What about the “solubility in water or phosphate buffer saline (PBS)” value [2] of the same compound?
Answer: insoluble

Question: What about the “time over which HIV-1 replication (p24 level) was controlled” value (HIV-1 Ba-L) of the same compound?
Answer: ≤ 5 days
